How the values were obtained:
[1] = refractive index (Na D-line) (dimensionless); xn = mol fraction of the nth substance listed; settings: 101.3 kPa, Liquid, Standard Abbe refractometry
[2] = xn = mol fraction of the nth substance listed; settings: 101.3 kPa, Liquid; for speed of sound: Frequency=3 MHz, Sing-around technique in a fixed-path interferometer; for mass density: Vibrating tube method

CCn1cc[n+](C)c1.COS(=O)(=O)[O-] [1-ethyl-3-methylimidazolium methylsulfate] + CCCO
Settings | mass density, [2] [kg/m3] | refractive index, [1] | speed of sound, [2] [m/s]
298 K, x1 = 0.059 | 864 | 1.394 | 1247
298 K, x1 = 0.228 | 1003 | 1.419 | 1377
298 K, x1 = 0.375 | 1090 | 1.435 | 1487
298 K, x1 = 0.524 | 1156 | 1.448 | 1588
298 K, x1 = 0.72 | 1223 | 1.463 | 1681
298 K, x1 = 0.874 | 1264 | 1.473 | 1730
298 K, x1 = 1 | 1292 | 1.48 | 1762
303 K, x1 = 0.059 | 859 | 1.393 | 1230
303 K, x1 = 0.228 | 998 | 1.417 | 1362
303 K, x1 = 0.375 | 1085 | 1.433 | 1473
303 K, x1 = 0.524 | 1152 | 1.446 | 1574
303 K, x1 = 0.72 | 1219 | 1.461 | 1668
303 K, x1 = 0.874 | 1260 | 1.471 | 1717
303 K, x1 = 1 | 1289 | 1.479 | 1750
308 K, x1 = 0.059 | 855 | 1.391 | 1214
308 K, x1 = 0.228 | 993 | 1.415 | 1347
308 K, x1 = 0.375 | 1080 | 1.431 | 1458
308 K, x1 = 0.524 | 1148 | 1.444 | 1560
308 K, x1 = 0.72 | 1215 | 1.459 | 1654
308 K, x1 = 0.874 | 1257 | 1.469 | 1704
308 K, x1 = 1 | 1285 | 1.478 | 1739
313 K, x1 = 0.059 | 851 | 1.389 | 1197
313 K, x1 = 0.228 | 989 | 1.413 | 1332
313 K, x1 = 0.375 | 1076 | 1.428 | 1443
313 K, x1 = 0.524 | 1143 | 1.442 | 1546
313 K, x1 = 0.72 | 1211 | 1.457 | 1641
313 K, x1 = 0.874 | 1253 | 1.468 | 1692
313 K, x1 = 1 | 1282 | 1.476 | 1727
